Assay results as given in patent publication US20250206727A1, “HETEROCYCLIC SUBSTITUTED AROMATIC COMPOUND, PREPARATION METHOD THEREFOR, HERBICIDAL COMPOSITION AND APPLICATION” (QINGDAO KINGAGROOT CHEMICAL COMPOUND CO., LTD., priority 2022, published 2025).

Legend:
Assay in all cases: Post-emergence test on weeds (greenhouse, spray at 2-3 leaf stage)
Assay type in all cases: in vivo
Set-up in all cases: key: Level 10: completely dead; Level 9: growth control rate greater than or equal to 90% and less than 100%; Level 8: growth control rate greater than or equal to 80% and less than 90%; Level 7: growth control rate greater than or equal to 70% and less than 80%; Level 6: growth control rate greater than or equal to 60% and less than 70%; Level 5: growth control rate greater than or equal to 50% and less than 60%; Level 4: growth control rate greater than or equal to 40% and less than 50%; Level 3: growth control rate greater than or equal to 30% and less than 40%; Level 2: growth control rate greater than or equal to 20% and less than 30%; Level 1: growth control rate less than 20%; Level 0: no effect
Details in all cases: 60 g a.i./ha, 3 weeks after application
[1] = test system: Abutilon theophrasti
In short: (§1)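 Greenhouse pot-grown weeds were sprayed by spray tower at the 2-3 leaf stage, about two weeks after sowing, with acetone/Tween 80 solutions plus 1.5 L/ha methyl oleate EC synergist at 500, 250, […], 15 and 7.5 g a.i./ha. Fresh-weight growth control was scored 0-10 after 3 weeks, triplicate averaged.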

[2] = test system: Digitaria sanguinalis
In short: as §1

[3] = test system: Veronica polita
In short: as §1

[4] = test system: Amaranthus retroflexus
In short: as §1

[5] = test system: Setaria viridis
In short: as §1

[6] = test system: Echinochloa crus-galli
In short: as §1

COC(=O)C1(C)ON=C(c2cc(-c3ncc(Cl)cc3F)c(F)cc2Cl)O1 (stereo not drawn) [Compound 13]
10: activity level (fresh weight growth control rate), Abutilon theophrasti [1] | activity level (fresh weight growth control rate), Digitaria sanguinalis [2] | activity level (fresh weight growth control rate), Veronica polita [3] | activity level (fresh weight growth control rate), Amaranthus retroflexus [4] | activity level (fresh weight growth control rate), Setaria viridis [5] | activity level (fresh weight growth control rate), Echinochloa crus-galli [6]

COCCOC(=O)C1ON=C(c2cc(-c3ncc(C(F)(F)F)cc3Cl)c(F)cc2Cl)O1 (stereo not drawn) [Compound 112]
10: activity level (fresh weight growth control rate), Abutilon theophrasti [1] | activity level (fresh weight growth control rate), Digitaria sanguinalis [2] | activity level (fresh weight growth control rate), Veronica polita [3] | activity level (fresh weight growth control rate), Amaranthus retroflexus [4] | activity level (fresh weight growth control rate), Setaria viridis [5] | activity level (fresh weight growth control rate), Echinochloa crus-galli [6]

COCCCOC(=O)C1(C)ON=C(c2cc(-c3ncc(C(F)(F)F)cc3Cl)c(F)cc2Cl)O1 (stereo not drawn) [Compound 114]
10: activity level (fresh weight growth control rate), Abutilon theophrasti [1] | activity level (fresh weight growth control rate), Digitaria sanguinalis [2] | activity level (fresh weight growth control rate), Veronica polita [3] | activity level (fresh weight growth control rate), Amaranthus retroflexus [4] | activity level (fresh weight growth control rate), Setaria viridis [5] | activity level (fresh weight growth control rate), Echinochloa crus-galli [6]

Cc1cc(C)n(C(=O)C2(C)ON=C(c3cc(-c4ncc(C(F)(F)F)cc4Cl)c(F)cc3Cl)O2)n1 (racemic) [Compound 156]
10: activity level (fresh weight growth control rate), Abutilon theophrasti [1] | activity level (fresh weight growth control rate), Digitaria sanguinalis [2] | activity level (fresh weight growth control rate), Veronica polita [3] | activity level (fresh weight growth control rate), Amaranthus retroflexus [4] | activity level (fresh weight growth control rate), Setaria viridis [5] | activity level (fresh weight growth control rate), Echinochloa crus-galli [6]

COCCOC(=O)C1(C)ON=C(c2cc(-c3ncc(Cl)cc3Cl)c(F)cc2Cl)O1 (stereo not drawn) [Compound 111]
10: activity level (fresh weight growth control rate), Abutilon theophrasti [1] | activity level (fresh weight growth control rate), Digitaria sanguinalis [2] | activity level (fresh weight growth control rate), Veronica polita [3] | activity level (fresh weight growth control rate), Amaranthus retroflexus [4] | activity level (fresh weight growth control rate), Setaria viridis [5] | activity level (fresh weight growth control rate), Echinochloa crus-galli [6]

COC(=O)C1(C)ON=C(c2cc(-c3ncc(F)cc3Cl)c(F)cc2Cl)O1 (stereo not drawn) [Compound 14]
10: activity level (fresh weight growth control rate), Abutilon theophrasti [1] | activity level (fresh weight growth control rate), Digitaria sanguinalis [2] | activity level (fresh weight growth control rate), Veronica polita [3] | activity level (fresh weight growth control rate), Amaranthus retroflexus [4] | activity level (fresh weight growth control rate), Setaria viridis [5] | activity level (fresh weight growth control rate), Echinochloa crus-galli [6]

CC(C)OC(=O)C1(C)ON=C(c2cc(-c3ncc(C(F)(F)F)cc3Cl)c(F)cc2Cl)O1 (stereo not drawn) [Compound 88]
10: activity level (fresh weight growth control rate), Abutilon theophrasti [1] | activity level (fresh weight growth control rate), Digitaria sanguinalis [2] | activity level (fresh weight growth control rate), Veronica polita [3] | activity level (fresh weight growth control rate), Amaranthus retroflexus [4] | activity level (fresh weight growth control rate), Setaria viridis [5] | activity level (fresh weight growth control rate), Echinochloa crus-galli [6]

CCOC(=O)C1(C)ON=C(c2cc(-c3ncc(Cl)cc3F)c(F)cc2Cl)O1 (stereo not drawn) [Compound 31]
10: activity level (fresh weight growth control rate), Abutilon theophrasti [1] | activity level (fresh weight growth control rate), Digitaria sanguinalis [2] | activity level (fresh weight growth control rate), Veronica polita [3] | activity level (fresh weight growth control rate), Amaranthus retroflexus [4] | activity level (fresh weight growth control rate), Setaria viridis [5] | activity level (fresh weight growth control rate), Echinochloa crus-galli [6]

CCOC(=O)C1(C)ON=C(c2cc(-c3ncc(F)cc3Cl)c(F)cc2Cl)O1 (stereo not drawn) [Compound 35]
10: activity level (fresh weight growth control rate), Abutilon theophrasti [1] | activity level (fresh weight growth control rate), Digitaria sanguinalis [2] | activity level (fresh weight growth control rate), Veronica polita [3] | activity level (fresh weight growth control rate), Amaranthus retroflexus [4] | activity level (fresh weight growth control rate), Setaria viridis [5] | activity level (fresh weight growth control rate), Echinochloa crus-galli [6]

CCOC(=O)C1(C)ON=C(c2cc(-c3ncc(C(F)(F)F)cc3Cl)c(F)cc2C(F)(F)F)O1 (stereo not drawn) [Compound 54]
10: activity level (fresh weight growth control rate), Abutilon theophrasti [1] | activity level (fresh weight growth control rate), Digitaria sanguinalis [2] | activity level (fresh weight growth control rate), Veronica polita [3] | activity level (fresh weight growth control rate), Amaranthus retroflexus [4] | activity level (fresh weight growth control rate), Setaria viridis [5] | activity level (fresh weight growth control rate), Echinochloa crus-galli [6]

CCCOC(=O)C1(C)ON=C(c2cc(-c3ncc(C(F)(F)F)cc3Cl)c(F)cc2Cl)O1 (stereo not drawn) [Compound 86]
10: activity level (fresh weight growth control rate), Abutilon theophrasti [1] | activity level (fresh weight growth control rate), Digitaria sanguinalis [2] | activity level (fresh weight growth control rate), Veronica polita [3] | activity level (fresh weight growth control rate), Amaranthus retroflexus [4] | activity level (fresh weight growth control rate), Setaria viridis [5] | activity level (fresh weight growth control rate), Echinochloa crus-galli [6]

COC(=O)C1(C)ON=C(c2cc(-c3ncc(C(F)(F)F)cc3Cl)c(F)cc2Br)O1 (stereo not drawn) [Compound 9]
10: activity level (fresh weight growth control rate), Abutilon theophrasti [1] | activity level (fresh weight growth control rate), Digitaria sanguinalis [2] | activity level (fresh weight growth control rate), Veronica polita [3] | activity level (fresh weight growth control rate), Amaranthus retroflexus [4] | activity level (fresh weight growth control rate), Setaria viridis [5] | activity level (fresh weight growth control rate), Echinochloa crus-galli [6]

COC(=O)C1ON=C(c2cc(-c3ncc(C(F)(F)F)cc3Cl)c(F)cc2Br)O1 (stereo not drawn) [Compound 2]
10: activity level (fresh weight growth control rate), Abutilon theophrasti [1] | activity level (fresh weight growth control rate), Digitaria sanguinalis [2] | activity level (fresh weight growth control rate), Veronica polita [3] | activity level (fresh weight growth control rate), Amaranthus retroflexus [4] | activity level (fresh weight growth control rate), Setaria viridis [5] | activity level (fresh weight growth control rate), Echinochloa crus-galli [6]

CC(C)=NOC(=O)C1(C)ON=C(c2cc(-c3ncc(C(F)(F)F)cc3Cl)c(F)cc2Cl)O1 (racemic) [Compound 137]
10: activity level (fresh weight growth control rate), Abutilon theophrasti [1] | activity level (fresh weight growth control rate), Digitaria sanguinalis [2] | activity level (fresh weight growth control rate), Veronica polita [3] | activity level (fresh weight growth control rate), Amaranthus retroflexus [4] | activity level (fresh weight growth control rate), Setaria viridis [5] | activity level (fresh weight growth control rate), Echinochloa crus-galli [6]

CCC1(C(=O)OC)ON=C(c2cc(-c3ncc(Cl)cc3F)c(F)cc2Cl)O1 (stereo not drawn) [Compound 16]
10: activity level (fresh weight growth control rate), Abutilon theophrasti [1] | activity level (fresh weight growth control rate), Digitaria sanguinalis [2] | activity level (fresh weight growth control rate), Veronica polita [3] | activity level (fresh weight growth control rate), Amaranthus retroflexus [4] | activity level (fresh weight growth control rate), Setaria viridis [5] | activity level (fresh weight growth control rate), Echinochloa crus-galli [6]

CCOC(=O)C1ON=C(c2cc(-c3ncc(C(F)(F)F)cc3Cl)c(F)cc2Br)O1 (stereo not drawn) [Compound 25]
10: activity level (fresh weight growth control rate), Abutilon theophrasti [1] | activity level (fresh weight growth control rate), Digitaria sanguinalis [2] | activity level (fresh weight growth control rate), Veronica polita [3] | activity level (fresh weight growth control rate), Amaranthus retroflexus [4] | activity level (fresh weight growth control rate), Setaria viridis [5] | activity level (fresh weight growth control rate), Echinochloa crus-galli [6]
